“Also recorded” adds a separate entry of the source.
Tested on: Cyp1b1^−/− Tyr^c−2J/c−2J (albino) double mutants
Assay: L-DOPA supplementation via drinking water throughout ocular development; histologic and electron microscopic grading of angle dysgenesis
Format: in vivo, mice
Settings: for developmental abnormalities in the iridocorneal angle / severe angle dysgenesis (histology): L-DOPA 1 mg/ml in drinking water from gestation until harvest at approximately 4 weeks
Source text: Applicant hypothesized that tyrosinase might affect angle development through modulation of L-DOPA levels. Tyrosinase is a monooxygenase that converts tyrosine to L-DOPA and L-DOPA to dopaquinone. L-DOPA affects development and is the precursor of catecholamines, which are important developmental regulators (15-17). To investigate whether L-DOPA is a critical molecule in angle development, Applicant administered water containing L-DOPA or standard drinking water to Cyp1b1^-/- Tyr^c-2J/c-2J (albino) double mutants throughout ocular development [their mothers received this water throughout the period of in utero development (12)]. […] Despite the profound rescue in L-DOPA treated albino Cyp1b1^-/- mice, mild abnormalities of similar severity to those observed in pigmented Cyp1b1^-/- mice remained. […] These include genes that affect L-DOPA levels, affect the metabolism of L-DOPA to other developmentally important molecules or affect the signaling of these molecules in developmental/physiologic pathways. L-DOPA treatment-L-DOPA (dihydroxyphenylalanine, 15,431-8, Aldrich Chemical Company, Inc., Milwaukee, Wis.) was supplied to the animals via their drinking water at a concentration of 1 mg/ml (5, 6). L-DOPA was dissolved into acidic water (pH of 3) to avoid oxidation. Animals were either on L-DOPA for their entire gestation or started on L-DOPA at embryonic day E5.5 (prior to eye formation). Eyes were harvested at approximately 4 weeks of age and L-DOPA treatment was continued until the time of harvest. Freshly made L-DOPA water was supplied every three days. Histologic and electron microscopic analyses-Applicant fixed and processed eyes for plastic sectioning and electron microscopy as previously reported (1, 9). All tissues were harvested from mice at ages after angle formation. For light microscopy, eyes were […] sectioned and up to 56 sections were collected from each of 3 different ocular regions for all eyes. […] Collected regions included nasal lens periphery, central lens, and a region halfway between the lens center and the peripheral lens. Sections were stained with hematoxylin and eosin. Due to the potential for artifact in the delicate tissues analyzed abnormalities had to be present in multiple sections from the same region. Nine to twelve eyes were analyzed for each genotype on each genetic background. Applicant devised a grading scheme to allow comparison between different eyes. Applicant separately assessed the severity of defects affecting Schlemm's canal (SC), trabecular meshwork (TM) and creating synechiae. For each phenotype, Applicant graded 6 similarly spaced sections for each ocular region. Applicant graded the severity of abnormalities in both angles of a section. Thus, Applicant graded 36 angles (6 sections×2 angles×3 regions) from different ocular regions for each eye. Applicant designated a grade of 0, 1, 2, 3, or 4 (increasing in severity from 0 to 4, see below) to each phenotype for each angle. For an eye, the total grade could be any value between 0 and 144 (36 angles×4). […] To assess the difference in the severity of angle dysgenesis between the albino and pigmented eyes, Applicant graded approximately 10 eyes from mice of each Cyp1b1 and Foxc1 genotype. Due to the continuous nature of the grade, Applicant present the data as mean± SEM and compared genotypes using two tailed student t-tests. Applicant checked the consistency of the grading method by assessing 8 random eyes on a second occasion without knowledge of the initial grade. […]

## N[C@@H](Cc1ccc(O)c(O)c1)C(=O)O [L-DOPA, 3,4-dihydroxyphenylalanine]
Cyp1b1^−/− Tyr^c−2J/c−2J mice, B6 background, versus untreated
  developmental abnormalities in the iridocorneal angle / severe angle dysgenesis (histology): alleviated; also recorded: prevent the severe angle dysgenesis
Cyp1b1^−/− Tyr^c−2J/c−2J mice, B6 background, versus untreated, listed as LDOPA
  developmental abnormalities in the iridocorneal angle / severe angle dysgenesis (histology): substantially prevented developmental abnormalities
Cyp1b1^−/− Tyr^c−2J/c−2J mice, B6 background, L-DOPA 1 mg/ml in drinking water, versus untreated
  ultrastructure of the trabecular meshwork (electron micrographs): rescues the ultrastructure of the trabecular meshwork
Cyp1b1^−/− Tyr^c−2J/c−2J mice, L-DOPA 1 mg/ml in drinking water, grade 0-144 per eye, p<0.001 for all assessed phenotypes versus untreated
  mean severity grades of developmental dysgenesis (Schlemm's canal, trabecular meshwork, synechiae): can be alleviated
L-DOPA treated albino Cyp1b1^−/− mice, compared with pigmented Cyp1b1^−/− mice
  abnormalities remaining after L-DOPA treatment: mild abnormalities of similar severity to those observed in pigmented Cyp1b1^−/− mice remained

From patent US20040220270A1, “Methods and composition of treating glaucoma by modulating tyrosinase/L-DOPA pathway” (The Jackson Laboratory, priority 2003, published 2004)
